According to patent US5137892A, “Quinoline, naphthyridine and pyridobenzoxazine derivatives” (Abbott Laboratories, priority 1990, dated 1992):
Where two headings read alike, the source gives them in different places.

Tested on: Staphylococcus aureus NCTC 10649
Test: In Vivo Antibacterial Activity, protection of CF-1 female mice from bacterial challenge
Design: species or system CF-1 female mice infected with Staphylococcus aureus
Details: 100 times the LD50 i.p., dosed at 1 and 5 hr after infection, mortality on sixth day
Experimental: The in vivo antibacterial activity of one of the compounds of the present invention was determined by studying the protection of CF-1 female mice from bacterial challenge. The test compound was 7-(2-dimethylaminomethyl-1,4-dioxa-7-azaspiro[4.4]non-7-yl)-6-fluoro-1-(2,4-difluorophenyl)-1,8-naphthyridine-3-carboxylic acid (prepared in Example 445). Aqueous solutions of the compound were made by dissolving it in dilute NaOH and diluting with distilled water to the desired volume.
The median lethal dose of the test organism was then determined as follows: After 18 hours incubation, a culture of Staphylococcus aureus NCTC 10649 was serially diluted by using 10-fold dilutions in 5% (w/v) hog gastric mucin. 0.5 mL samples, of dilution from 10^-1 to 10^-8, were injected intraperitoneally into mice. The LD50 for the test organism was calculated from the cumulative mortalities on the sixth day by the using the Reed and Muench procedure (Reed, L. J., and H. Muench, Amer. J. Hygiene, 27, 493 (1938)).
The 18 hour culture of the test organism was then diluted in 5% (w/v) hog gastric mucin to obtain 100 times the LD50, and 0.5 mL was injected intraperitoneally into mice. The mice were treated subcutaneously or orally with a specific amount of the test compound divided equally to be administered at 1 and 5 hr after infection. […]

CN(C)CC1COC2(CCN(c3nc4c(cc3F)c(=O)c(C(=O)O)cn4-c3ccc(F)cc3F)C2)O1 (centres unmarked) [Example 445] showed an ED50 (NCTC10649, 144 h, oral, read-out: oral ED50) of 6 mg/kg and an ED50 (NCTC10649, sc, 144 h, subcutaneous, read-out: subcutaneous ED50) of 5 mg/kg.
